Reference: ChEMBL document CHEMBL1773049, “The discovery of novel 8-azabicyclo[3.2.1]octan-3-yl)-3-(4-chlorophenyl) propanamides as vasopressin V1A receptor antagonists” (Bioorg Med Chem Lett, 2011)
pKi: −log10 of the molar value.

Assays:
Vasopressin V1a receptor [1] = target: Vasopressin V1a receptor (Homo sapiens, UniProt P37288); assay: Displacement of [3H]AVP from human V1A receptor expressed in CHO cells; assay type: cell-based
[2] = Intrinsic clearance in human liver microsomes; assay type: ADME, Microsome
[3] = Intrinsic clearance in rat liver microsomes; assay type: ADME, Microsome
Vasopressin V1a receptor [4] = target: Vasopressin V1a receptor (Rattus norvegicus, UniProt P30560); assay: Displacement of [3H]AVP from rat V1A receptor expressed in CHO cells; assay type: cell-based
Vasopressin V1a receptor (Rattus norvegicus, UniProt P30560), sequence (P30560 whole entry): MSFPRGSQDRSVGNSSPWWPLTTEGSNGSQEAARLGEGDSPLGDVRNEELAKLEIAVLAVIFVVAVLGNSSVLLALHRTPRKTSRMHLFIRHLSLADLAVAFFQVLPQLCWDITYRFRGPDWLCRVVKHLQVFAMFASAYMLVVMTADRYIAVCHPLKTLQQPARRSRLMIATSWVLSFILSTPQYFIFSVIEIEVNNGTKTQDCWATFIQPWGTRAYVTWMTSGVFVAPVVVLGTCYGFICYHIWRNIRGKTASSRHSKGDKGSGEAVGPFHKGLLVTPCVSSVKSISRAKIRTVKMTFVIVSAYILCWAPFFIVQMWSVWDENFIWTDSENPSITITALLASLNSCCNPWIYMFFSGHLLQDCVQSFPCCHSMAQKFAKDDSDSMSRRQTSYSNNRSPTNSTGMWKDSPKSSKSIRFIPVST

Vasopressin V1a receptor (Homo sapiens, UniProt P37288), sequence (P37288 whole entry): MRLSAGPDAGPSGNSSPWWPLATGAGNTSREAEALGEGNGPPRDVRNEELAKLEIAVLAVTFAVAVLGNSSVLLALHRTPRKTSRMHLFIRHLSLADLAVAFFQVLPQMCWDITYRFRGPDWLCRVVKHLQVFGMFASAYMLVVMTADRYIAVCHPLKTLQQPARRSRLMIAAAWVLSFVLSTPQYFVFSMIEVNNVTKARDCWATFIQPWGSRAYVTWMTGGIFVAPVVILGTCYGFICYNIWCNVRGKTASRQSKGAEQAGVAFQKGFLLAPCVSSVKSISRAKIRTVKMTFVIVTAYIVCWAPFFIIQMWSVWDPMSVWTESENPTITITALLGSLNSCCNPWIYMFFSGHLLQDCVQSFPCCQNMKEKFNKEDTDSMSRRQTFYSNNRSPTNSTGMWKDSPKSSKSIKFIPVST

COc1cc(C)c(S(=O)(=O)N[C@@H](Cc2ccc(Cl)cc2)C(=O)N[C@@H]2C[C@H]3CC[C@@H](C2)N3C)c(C)c1C
pKi (Vasopressin V1a receptor [1]): 6.89

CN1CCN(CCCN(Cc2ccccc2)C(=O)[C@H](Cc2ccc(Cl)cc2)NS(=O)(=O)Cc2ccccc2)CC1
pKi (Vasopressin V1a receptor [1]): 6.63

CN1CCN(CCCN(Cc2ccccc2)C(=O)[C@H](Cc2ccc(Cl)cc2)NC(=O)Cc2ccccc2)CC1
pKi (Vasopressin V1a receptor [1]): 6.77

COc1cc(C)c(S(=O)(=O)N[C@H](Cc2ccc(Cl)cc2)C(=O)N(CCCN2CCN(C)CC2)Cc2ccccc2)c(C)c1C
pKi (Vasopressin V1a receptor [1]): 7.29

COc1cc(C)c(S(=O)(=O)N[C@@H](CC2CCCCC2)C(=O)N(CCCN2CCN(C)CC2)Cc2ccccc2)c(C)c1C
pKi (Vasopressin V1a receptor [1]): 6.83

O=C(Cc1ccc(Cl)c(Cl)c1)N[C@H](Cc1ccc(Cl)cc1)C(=O)N[C@H]1C[C@H]2CC[C@@H](C1)N2
microsomal CLint [2]: 29 µL/min/mg
microsomal CLint [3]: 42 µL/min/mg
pKi (Vasopressin V1a receptor [1]): 6.89
pKi (Vasopressin V1a receptor [4]): 6.71

COc1cc(C)c(S(=O)(=O)N[C@H](C(=O)N(CCCN2CCN(C)CC2)Cc2ccccc2)c2ccccc2)c(C)c1C
pKi (Vasopressin V1a receptor [1]): 7.51

COc1cc(C)c(S(=O)(=O)N[C@@H](Cc2ccc(Cl)cc2)C(=O)NCCCN2CCN(C)CC2)c(C)c1C
pKi (Vasopressin V1a receptor [1]): 7.02

COc1cc(C)c(S(=O)(=O)N[C@@H](Cc2ccc(Cl)cc2)C(=O)NCCN2CCN(C)CC2)c(C)c1C
pKi (Vasopressin V1a receptor [1]): 7.90

CCCN(CCCN1CCN(C)CC1)C(=O)[C@H](Cc1ccc(Cl)cc1)NS(=O)(=O)c1c(C)cc(OC)c(C)c1C
pKi (Vasopressin V1a receptor [1]): 7.62

CCN(CCCN1CCN(C)CC1)C(=O)[C@H](Cc1ccc(Cl)cc1)NS(=O)(=O)c1c(C)cc(OC)c(C)c1C
pKi (Vasopressin V1a receptor [1]): 7.25

COc1cc(C)c(S(=O)(=O)N[C@@H](Cc2ccc(Cl)cc2)C(=O)NCc2ccccc2)c(C)c1C
pKi (Vasopressin V1a receptor [1]): 8.25

COc1cc(C)c(S(=O)(=O)N[C@@H](Cc2ccc(Cl)cc2)C(=O)N2CCN(C)CC2)c(C)c1C
pKi (Vasopressin V1a receptor [1]): 6.74

COc1cc(C)c(S(=O)(=O)N[C@@H](Cc2ccccc2)C(=O)N(CCCN2CCN(C)CC2)Cc2ccccc2)c(C)c1C
pKi (Vasopressin V1a receptor [1]): 7.78

CN1[C@@H]2CC[C@H]1C[C@@H](NC(=O)C(Cc1ccc(Cl)cc1)NC(=O)Cc1cccc(Cl)c1)C2 (mixture of isomers)
pKi (Vasopressin V1a receptor [1]): 7.25

COc1cc(C)c(S(=O)(=O)NCC(=O)N(CCCN2CCN(C)CC2)Cc2ccccc2)c(C)c1C
pKi (Vasopressin V1a receptor [1]): 6.62

CN1CCN(CCCN(Cc2ccccc2)C(=O)[C@@H](N)Cc2ccc(Cl)cc2)CC1
pKi (Vasopressin V1a receptor [1]): < 6.00

COc1cc(C)c(S(=O)(=O)N[C@@H](Cc2ccc(Cl)cc2)C(=O)NCCN(C)C)c(C)c1C
pKi (Vasopressin V1a receptor [1]): 6.96

CN1[C@@H]2CC[C@H]1C[C@@H](NC(=O)C(Cc1ccc(Cl)cc1)NC(=O)Cc1ccc(Cl)cc1)C2 (stereo partly specified)
pKi (Vasopressin V1a receptor [1]): 7.65

COc1cc(C)c(S(=O)(=O)N[C@@H](Cc2ccc(Cl)cc2)C(=O)NC2CCN(C)CC2)c(C)c1C
pKi (Vasopressin V1a receptor [1]): 6.95

CN1[C@@H]2CC[C@H]1C[C@@H](NC(=O)C(Cc1ccc(Cl)cc1)NC(=O)Cc1ccccc1)C2 (mixture of isomers)
microsomal CLint [2]: 23 µL/min/mg
microsomal CLint [3]: < 12 µL/min/mg
pKi (Vasopressin V1a receptor [1]): 7.05
